Reference: patent US20180113128A1, “DETECTION OF URINARY TRACT INFECTIONS” (ISI Life Sciences, Inc., priority 2016, published 2018)

Key:
Format in all cases: biochemical
urease [1] = assay: Second in vitro test: pro-label in normal human urine with or without urease; conditions: room temperature, approximately 10 minutes
Description: In this example, fluorescein dioctanoate (a non-fluorescent derivative of fluorescein and a pro-label) was combined with normal urine recently obtained from a volunteer. The urine was divided into two containers. The first container (A) contained fluorescein dioctanoate added as a 1% solution in DMSO. The second container (B) additionally contained urease.
Both samples were maintained at room temperature for approximately 10 minutes and the samples were then evaluated for fluorescence. As is well known, the fluorescence emitted by fluorescein is typically a greenish-yellow color.

urease [2] = assay: In vitro test demonstrating breakage of ester bonds (urea buffers with or without urease, 96 well); conditions: ten minutes
Excerpt: Two different fluorescein diesters were used in this example. These diesters were fluorescein dibutyrate and fluorescein dioctanoate both of which are commercially available or can be prepared by reacting fluorescein under conventional esterification techniques using as acid anhydrides, acid chlorides, etc. as described herein. The structure of fluorescein diesters is as set forth below:
A. Fluorescein dibutryate (each R is —CH2CH2CH2CH3) B. Fluorescein dioctanoate (each R is —CH2CH2CH2CH2CH2CH3) • The assay was conducted with the following: 1. Assay Buffer A: 0.5 M Urea in phosphate buffered saline, pH 7 (freshly prepared from solid urea). 2. Assay Buffer B: Assay Buffer A plus 0.05% bovine serum albumin 3. Urease: 2000 u/mL in phosphate buffered saline (PBS). This equates to about 40 mg per mL. 4. Fluorescein diesters are dissolved in water with 1% DMSO.
100 microliters of PBS, Assay Buffer A, or Assay Buffer B were added to wells of a 96 well cluster. • 10 microliters of urease were added to the indicated wells. • 5 microliters of each diester were added to each well.
The wells were monitored for ten minutes at which time a photograph was taken.

leukocyte esterases = assay: Fourth in vitro test: pro-label contacted with blood lysate
Excerpt: Certain E. coli species are a common cause of UTIs. […] So, unlike Example 3 where E. coli was used in the absence of blood components, this example evaluates the results of whether a blood lysate would deacylate the ester bonds of pro-labels. Specifically, this example evaluates if these esterases are present in sufficient quantities in the lysate to effect transformation of the pro-labels to labels by deacylation. Accordingly, fluorescein dioctanoate (a non-fluorescent pro-label) was contacted with a blood lysate. A control composition (phosphate buffered saline) containing the same pro-label was prepared. […] The first column contains the control and the second column contains the pro-labeled solution. This figure is taken at time equal to zero. […] As before, the left column is control and the right column is the blood lysate in the presence of fluorescein dioctanoate. […] As to the greenish tinge around the control test tubes, it is postulated that this is the result of reflection from the bright green fluorescence of the adjacent tubes (not shown). Those tubes were removed from FIG. 4 so as to allow a direct comparison between the control and fluorescein dioctanoate.

[3] = Buffer A: 0.5 M urea in PBS pH 7, no urease
[4] = Buffer B: Buffer A plus 0.05% bovine serum albumin, no urease

Compound	fluorescein fluorescence in urine sample (urease [1]; normal human urine plus urease (container B))	fluorescein fluorescence in urine sample (urease [1]; normal human urine, no urease (container A))	fluorescence (photograph) (urease [2]; [3])	fluorescence (photograph) (urease [2]; Buffer B+urease)	fluorescence (photograph) (urease [2]; [4])	fluorescence upon application of UV light (leukocyte esterases; blood lysate, incubation for 90 minutes)	fluorescence upon application of UV light (leukocyte esterases; control composition (phosphate buffered saline) containing the same pro-label, 90 minutes)
CCCCCCCC(=O)Oc1ccc2c(c1)Oc1cc(OC(=O)CCCCCCC)ccc1C21OC(=O)c2ccccc21 [fluorescein dioctanoate]	presence of fluorescein fluorescence	lack of fluorescein fluorescence	no fluorescence	fluorescence	no to substantially no fluorescence	evidenced fluorescence	did not
CCCC(=O)Oc1ccc2c(c1)Oc1cc(OC(=O)CCC)ccc1C21OC(=O)c2ccccc21 [fluorescein dibutyrate]			no fluorescence	fluorescence	minimal fluorescence		
